Laboratory results from patent US20230218563A1, “METHODS FOR TREATING OR PREVENTING CHRONIC KIDNEY DISEASE” (Arthrosi Therapeutics, Inc., priority 2020, published 2023).

Key:
[1] = target: T1, human URAT1 uptake transporter (Homo sapiens, UniProt Q96S37); assay: Inhibition of URAT1 mediated uric acid uptake in MDCKII cells stably expressing human URAT1; assay type: cell-based
T1 construct: expressed in transfected cells
T1 sequence (Q96S37 1-553): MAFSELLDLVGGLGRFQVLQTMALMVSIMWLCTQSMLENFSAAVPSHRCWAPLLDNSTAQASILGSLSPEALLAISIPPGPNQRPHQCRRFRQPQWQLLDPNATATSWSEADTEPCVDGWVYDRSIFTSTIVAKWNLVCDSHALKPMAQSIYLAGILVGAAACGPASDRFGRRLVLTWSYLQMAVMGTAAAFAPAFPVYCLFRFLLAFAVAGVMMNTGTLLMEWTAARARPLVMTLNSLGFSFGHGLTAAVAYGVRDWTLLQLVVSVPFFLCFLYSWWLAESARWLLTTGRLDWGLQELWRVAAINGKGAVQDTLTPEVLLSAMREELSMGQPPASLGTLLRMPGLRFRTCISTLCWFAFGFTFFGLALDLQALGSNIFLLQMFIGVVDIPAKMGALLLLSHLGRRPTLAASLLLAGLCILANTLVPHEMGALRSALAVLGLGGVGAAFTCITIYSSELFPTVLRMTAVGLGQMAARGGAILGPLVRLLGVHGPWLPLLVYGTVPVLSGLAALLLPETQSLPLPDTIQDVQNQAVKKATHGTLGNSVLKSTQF
Protocol: Uptake experiments were performed using MDCKII cells stably expressing the human URAT1 uptake transporter. Cells were cultured at 37±1° C. in an atmosphere of 95:5 air:CO2 and were plated onto standard 96-well tissue culture plates at the cell number described in Table 1.
Radiolabeled probe substrate transport was determined by measuring an aliquot (35 μL) from each well for liquid scintillation counting.

[2] = test system: serum uric acid (sUA); assay: Phase 1 multiple ascending dose study, pharmacodynamics (serum uric acid) in healthy adult males; assay type: in vivo, human; settings: for reduction of sUA concentration at trough / reduction of sUA concentration, maximum: fasted, Day 10
From the text: An additional 6 subjects received placebo.
Steady-state sUA lowering effect was achieved after approximately 5 days.

[3] = test system: urine albumin-to-creatinine ratio (UACR); assay: Renal function safety pharmacology study in rats, single oral dose (urine albumin, creatinine, UACR); assay type: in vivo, Sprague Dawley Rats
Protocol: Cageside and detailed clinical observations, body weights, water consumption, blood clinical chemistry, urine chemistry, and urinalysis were performed. Osmolality, osmolality gap, urine volume, water intake rate, fluid balance, urinary excretion, renal creatinine clearance, renal clearance, free water clearance, and fractional electrolyte clearance were calculated and evaluated. All animals were euthanized on Day 2 after scheduled observations. Blood samples for clinical chemistry analysis were collected from all the animals at 24 hours post dose prior to each scheduled euthanasia. Urine samples for clinical chemistry and urinalysis were collected from all the animals at pre-dose (˜24 hours) and 0-6 hours and 6-24 hours post-dose.

[4] = Phase 2a study, safety and tolerability in gout patients; assay type: in vivo, human; settings: 50 mg once daily
From the text: Urine samples were collected for assessment of uric acid excretion. Laboratory safety tests, vital signs, and electrocardiograms were collected throughout the study.

[5] = 4-week toxicity study in cynomolgus monkeys; assay type: in vivo
From the text: On Day 29, surviving TS animals (all animals in study) were euthanized and subjected to a full gross necropsy, which included a macroscopic examination of the external surface of the body, all orifices, cranial cavity, external surface of the brain, the thoracic, abdominal and pelvic cavities and their viscera, cervical areas, carcass and genitalia. Organs were weighed as soon as possible from all main study animals at the scheduled necropsies. Tissues from animals at the terminal sacrifice, from animals found dead or moribund-sacrificed, and gross lesions from all animals, were embedded in paraffin, sectioned, stained with hematoxylin and eosin and examined microscopically by a board certified veterinary pathologist.

[6] = female rats, 5 mg/kg single oral, urine 0-6 h post dose
[7] = female rats, 5 mg/kg single oral, urine 6-24 h post dose
[8] = female rats, 15 mg/kg single oral, urine 0-6 h post dose
[9] = female rats, 15 mg/kg single oral, urine 6-24 h post dose
[10] = female rats, 50 mg/kg single oral, urine 0-6 h post dose
[11] = female rats, 50 mg/kg single oral, urine 6-24 h post dose
[12] = male rats, 10 mg/kg single oral, urine 0-6 h post dose
[13] = male rats, 10 mg/kg single oral, urine 6-24 h post dose
[14] = male rats, 30 mg/kg single oral, urine 0-6 h post dose
[15] = male rats, 30 mg/kg single oral, urine 6-24 h post dose
[16] = male rats, 100 mg/kg single oral, urine 0-6 h post dose
[17] = male rats, 100 mg/kg single oral, urine 6-24 h post dose
[18] = cynomolgus monkeys, oral 10, 30 and 150 mg/kg/day, 28 days

## [2H]c1c([2H])c([2H])c2c(C(=O)c3cc(Br)c(O)c(Br)c3)c(C(C)O)oc2c1[2H] (racemic) [Compound 1, (3,5-dibromo-4-hydroxyphenyl)(2-(1-hydroxyethyl)benzofuran-3-yl-4,5,6,7-d4)methanone]
[1]
  in vitro URAT1 potency compared with benzbromarone: better in vitro URAT1 potency than benzbromarone
[2]; 25 mg oral capsules once daily
  reduction of sUA concentration at trough: 41%
  reduction of sUA concentration, maximum: up to 44%
[2]; 50 mg oral capsules once daily
  reduction of sUA concentration at trough: 58%
  reduction of sUA concentration, maximum: up to 67%
[2]; 75 mg oral capsules once daily
  reduction of sUA concentration at trough: 65%
  reduction of sUA concentration, maximum: up to 69%
[2]; once-daily 25, 50 or 75 mg
  time to steady-state sUA lowering effect: approximately 5 days
[3]; [6]
  % UACR change vs Ctrl: 140%
  % UACR change vs baseline: 73%
  UACR: 102.7 mg/g
  UALB: 33.71 mg/L
  UCRE: 0.328 g/L
[3]; [7]
  % UACR change vs Ctrl: 19%
  % UACR change vs baseline: 44%
  UACR: 40.3 mg/g
  UALB: 24.2 mg/L
  UCRE: 0.600 g/L
[3]; [8]
  % UACR change vs Ctrl: −53%
  % UACR change vs baseline: −6%
  UACR: 17.5 mg/g
  UALB: 5.22 mg/L
  UCRE: 0.298 g/L
[3]; [9]
  % UACR change vs Ctrl: −41%
  % UACR change vs baseline: 9%
  UACR: 20.1 mg/g
  UALB: 11.93 mg/L
  UCRE: 0.593 g/L
[3]; [10]
  % UACR change vs Ctrl: −38%
  % UACR change vs baseline: −23%
  UACR: 23.4 mg/g
  UALB: 9.58 mg/L
  UCRE: 0.409 g/L
[3]; [11]
  % UACR change vs Ctrl: −21%
  % UACR change vs baseline: −7%
  UACR: 26.8 mg/g
  UALB: 21.15 mg/L
  UCRE: 0.790 g/L
[3]; [12]
  % UACR change vs Ctrl: −62%
  % UACR change vs baseline: −62%
  UACR: 14.2 mg/g
  UALB: 6.22 mg/L
  UCRE: 0.438 g/L
[3]; [13]
  % UACR change vs Ctrl: −32%
  % UACR change vs baseline: 23%
  UACR: 28.3 mg/g
  UALB: 14.79 mg/L
  UCRE: 0.523 g/L
[3]; [14]
  % UACR change vs Ctrl: −59%
  % UACR change vs baseline: −46%
  UACR: 15.5 mg/g
  UALB: 8.73 mg/L
  UCRE: 0.563 g/L
[3]; [15]
  % UACR change vs Ctrl: −28%
  % UACR change vs baseline: 31%
  UACR: 29.6 mg/g
  UALB: 12.38 mg/L
  UCRE: 0.418 g/L
[3]; [16]
  % UACR change vs Ctrl: −63%
  % UACR change vs baseline: −38%
  UACR: 13.9 mg/g
  UALB: 9.25 mg/L
  UCRE: 0.666 g/L
[3]; [17]
  % UACR change vs Ctrl: −32%
  % UACR change vs baseline: 46%
  UACR: 28.0 mg/g
  UALB: 15.18 mg/L
  UCRE: 0.542 g/L
[4]
  laboratory or ECG abnormalities: no clinically significant laboratory or ECG abnormalities
  tolerability: well tolerated
[5]; cynomolgus monkey, in vivo
  NOAEL, human equivalent: 600 mg
[5]; cynomolgus monkey, in vivo, po
  NOAEL at 28 days: 30 mg/kg
[5]; cynomolgus monkeys, 28 days oral then 4 week recovery
  findings after 4 week recovery period: No finding
[5]; cynomolgus monkeys, male, 150 mg/kg/day, 28 days
  liver weight: trended higher in male at 150 mg/kg/day, but no statistical difference
[5]; [18]
  clinical signs: No abnormal clinical signs
  effect on food consumption, body weight: no effect
  mortality: No mortality
